Experimental data published in US6491894B1, “NGR receptor and methods of identifying tumor homing molecules that home to angiogenic vasculature using same” (The Burnham Institute, priority 1998, dated 2002).
Where no end group is shown, it is not given here.

What was measured:
CD13/APN = target: T1, CD13/APN (Homo sapiens, UniProt P15144); assay: Affinity chromatography of cell extracts on immobilized peptide; format: binding
T1 construct: Experiments were performed using HL-60 cell extracts because they are known to express CD13/APN; endogenous in cells; host or cells: HL-60 cells (extract)
Procedure: To further characterize the interaction of CD13/APN with the NGR peptide, affinity chromatography on the CNGRC peptide was performed. The column was prepared by coupling the CNGRC peptide to SEPHAROSE (Pharmacia; Piscataway N.J.). Elution was effected with soluble CNGRC peptide. […] Extracts of Molt-4 and MDA-MB-435 cells transfected with CD13/APN were also characterized by using affinity chromatography, with extracts of the mock transfected counterparts used as negative controls.
The fractions were also analyzed for CD13 enzymatic activity using AlapNA as the substrate.

CD13/aminopeptidase N = CD13/aminopeptidase N (Homo sapiens, UniProt P15144); settings: cited from earlier work
CD13 = target: T2, CD13 (Gallus gallus, UniProt O57579); assay: bFGF-induced angiogenesis in chicken chorioallantoic membrane (CAM); format: in vivo; settings: topical, 3 days
T2 construct: CD13 is expressed in CAM angiogenic vasculature; from tissue; host or cells: chorioallantoic membrane of 10-day chicken embryos
T2 sequence (O57579 1-972): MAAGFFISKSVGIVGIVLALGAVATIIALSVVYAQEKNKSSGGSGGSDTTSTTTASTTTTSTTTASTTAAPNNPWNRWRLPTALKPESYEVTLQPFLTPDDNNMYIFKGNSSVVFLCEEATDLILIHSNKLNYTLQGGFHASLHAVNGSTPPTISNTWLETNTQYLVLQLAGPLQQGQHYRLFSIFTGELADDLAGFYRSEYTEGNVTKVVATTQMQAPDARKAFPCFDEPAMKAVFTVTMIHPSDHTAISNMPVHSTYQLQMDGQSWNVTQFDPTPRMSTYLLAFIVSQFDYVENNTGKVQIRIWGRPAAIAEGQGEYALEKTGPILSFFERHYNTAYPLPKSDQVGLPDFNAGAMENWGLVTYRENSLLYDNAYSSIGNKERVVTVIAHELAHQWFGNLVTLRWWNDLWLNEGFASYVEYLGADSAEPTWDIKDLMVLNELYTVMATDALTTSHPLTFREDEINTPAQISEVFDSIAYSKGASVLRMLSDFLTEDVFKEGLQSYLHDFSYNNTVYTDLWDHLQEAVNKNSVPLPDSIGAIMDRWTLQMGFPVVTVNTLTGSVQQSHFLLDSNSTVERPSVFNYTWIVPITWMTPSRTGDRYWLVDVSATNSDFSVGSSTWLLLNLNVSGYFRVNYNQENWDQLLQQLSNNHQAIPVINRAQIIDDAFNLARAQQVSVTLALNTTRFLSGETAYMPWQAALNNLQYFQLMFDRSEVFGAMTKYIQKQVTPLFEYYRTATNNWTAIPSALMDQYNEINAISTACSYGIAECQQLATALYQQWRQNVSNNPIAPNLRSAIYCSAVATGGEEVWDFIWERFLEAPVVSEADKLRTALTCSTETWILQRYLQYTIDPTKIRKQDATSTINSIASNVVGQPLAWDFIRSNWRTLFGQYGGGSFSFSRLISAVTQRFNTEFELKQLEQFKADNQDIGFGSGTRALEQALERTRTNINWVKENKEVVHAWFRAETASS
From the text: Various treatments were applied topically, and, after 3 days, the filters and surrounding CAMs were resected and fixed in formalin.
Each bar represents the mean number of vessels and standard errors from 8 CAMs on each group.

[1] = test system: MDA-MB-435 breast carcinoma; assay: Tumor therapy of mice bearing MDA-MB-435 breast carcinoma; format: in vivo; settings: 5 μg/mouse/week doxorubicin-equivalent
[2] = test system: MDA-MB-435 human breast carcinoma cells; settings: for cell killing when agents not removed: after 24 hr
Procedure: (SEQ ID NO:19; control) conjugate (0.1 to 10 μg/well of doxorubicin-equivalent) for either 30 min or overnight. Following incubation, the agents were removed by extensive washing with PBS, then fresh medium added and incubation was continued.

[3] = test system: MDA-MB-435 breast carcinoma; assay: Tumor therapy of mice bearing MDA-MB-435 breast carcinoma; format: in vivo, mouse
Procedure: Female 2-month old Balb c nu/nu mice (Harlan Sprague Dawley; San Diego Calif.) were used for these studies and were cared for according to the Burnham Institute animal facility guidelines. […] Tumors were allowed to grow to a size of about 1 cm^3 (about 5% of the mouse's body weight) before starting the treatment experiments, except for the toxicity experiments as discussed below.
Weekly doxorubicin/peptide conjugate or control treatments (5 μg/mouse/week of doxorubicin-equivalent) were administered intravenously. In some experiments, as indicated, a dose of 30 μg/mouse was administered every 3 weeks. […] As an additional control, in some experiments the tumor homing peptide was mixed with doxorubicin, without linking, and the mixture was administered to tumor bearing mice.
Mice were anesthetized with a tribromoethanol-based anesthetic mixture (AVERTIN; Papaioannou and Fox, Lab. Anim. 43:189-192 (1993)) before each treatment. Anesthetization facilitated the tail vein injections (final volume, 200 μl) and allowed precise serial three dimensional tumor size measurements. Tumor volume calculations were based on the equation for the volume of an ovaloid: V=4/3(nabc), where a, b, and c are ½ of the measured diameters in each of the three dimensions.
Briefly, mice with size-matched tumors (˜1000 mm^3) were randomized into four treatment groups (six animals per group): vehicle only, free doxorubicin, doxorubicin-control peptide, and doxorubicin-CNGRC (SEQ ID NO:8). Mice were treated at 5 μg/mouse/week of doxorubicin-equivalent, and the difference in tumor volumes between day 1 and day 28 determined (FIG. 11A).

[4] = test system: MDA-MB-435 derived tumors; assay: In vivo targeting of phage to breast carcinoma xenografts (phage recovery); parameters: species or system mouse; inhibition of CGSLVRC phage tumor homing by soluble peptide: dose or concentration left out as unconfirmed; settings: for reduction of the amount of phage in the tumor by coinjection of free peptide: 500 μg free peptide coinjected with RGD-4C phage; for inhibition of tumor homing of CNGRCVSGCAGRC (NGR) phage by co-injected soluble peptide: breast carcinoma xenografts; for inhibition of tumor homing of RGD-4C phage by co-injected soluble peptide: increasing amounts of peptide
Procedure: When the tumors attained a diameter of about 1 cm, phage expressing a specific RGD-containing peptide were administered to the tumor bearing mouse. Similar results to those discussed below also were obtained with nude mice bearing tumors formed by implantation of human melanoma C8161 cells or by implantation of mouse B16 melanoma cells.
1×10^9 phage expressing the RGD-containing peptide, RGD-4C ([…]; SEQ ID NO:1; see, Koivunen et al., supra, 1995) or control (insertless) phage were injected intravenously (iv) into the mice and allowed to circulate for 4 min. The mice then were snap frozen or perfused through the heart while under anesthesia, and various organs, including tumor, brain and kidney, were removed and the phage present in the organs was quantitated (see U.S. Pat. No. 5,622,699; Pasqualini and Ruoslahti, supra, 1996).
Phage displaying tumor homing peptides were recovered from breast carcinoma xenografts. […] The mean number of phage recovered from the tumor or control tissue (brain) and the standard error of the mean (SEM) from triplicate platings are shown in FIG. 1.
An insertless phage with a different selective marker (ampicillin instead of tetracycline) was co-injected with the NGR phage at the same input to assess specificity within the same tumor-bearing animal. The ratios were calculated using the number of co-injected control ampicillin-resistant phage recovered from the same tissues. The phage were quantitated from triplicate platings on tetracycline (the homing phage) or ampicillin (control phage) selective plates. Various additional control phage were injected separately into tumor-bearing mice. These controls included: fd-tet phage without insert; unselected phage library mixtures; phage selected and shown to home to other normal vascular beds; and phage displaying peptides that were unrelated to NGR. The RGD-4C ([…]; SEQ ID NO:1) phage served as a positive control.

human αv-integrins = settings: cited from earlier work
B16B15b mouse melanoma = assay: In vivo panning against a melanoma tumor; settings: 89 cloned phage recovered from B16B15b tumors, three rounds
Procedure: Mice bearing a melanoma were produced by implantation of B16B15b mouse melanoma cells, which produce highly vascularized tumors. B16B15b mouse melanoma cells were injected subcutaneously into the mammary fat pad of nude mice (2 months old) and tumors were allowed to grow until the diameter was about 1 cm. In vivo panning was performed as disclosed above. Approximately 1×10^12 transducing units of phage expressing the CX5C (SEQ ID NO:9), CX6C (SEQ ID NO:10) or CX7C (SEQ ID NO:11) library were injected, iv, and allowed to circulate for 4 min. Mice then were snap frozen in liquid nitrogen or perfused through the heart while under anesthesia, tumor tissue and brain (control organ) were removed, and phage were isolated as described above. Three rounds of in vivo panning were performed.
The amino acid sequences were determined for the inserts in 89 cloned phage recovered from the B16B15b tumors. The peptides expressed by these phage were represented by two predominant sequences, […] (SEQ ID NO:4; 52% of the clones sequenced) and WGTGLC (SEQ ID NO:18; 25% of the clones; see Table 2).

[5] = Acute toxicity in mice bearing extremely large tumors; settings: 200 μg/mouse, tumors about 25% of body weight
breast tumor = assay: Viability of tumor cells obtained from tumors of treated mice; format: in vivo, mouse; settings: 30 μg equivalent iv, tumors removed five days after treatment
Procedure: In addition, the viability of tumor cells obtained from tumors of mice treated with a tumor homing peptide/doxorubicin conjugate was compared to that of tumors from mice treated with free doxorubicin. In these experiments, breast tumor bearing mice were size matched with regard to the tumors, then treated intravenously with 30 μg equivalent of doxorubicin/RGD-4C ([…]; SEQ ID NO:1) or of free doxorubicin. Five days after treatment, the mice were euthanized and the tumors were removed. The tumor pairs were weighed and ground and the cell suspensions were plated (2 g tumor tissue per 150 mm plate).
Cell numbers were determined at 24 hours and 7 days after plating. Viability of tumor cells from the tumors of mice receiving the doxorubicin/RGD-4C ([…]; SEQ ID NO:1) conjugate was about 3 fold less than cells from tumors of mice treated with the free doxorubicin.

[6] = 5 μg/mouse/week doxorubicin-equivalent iv

T1 sequence (P15144 whole entry): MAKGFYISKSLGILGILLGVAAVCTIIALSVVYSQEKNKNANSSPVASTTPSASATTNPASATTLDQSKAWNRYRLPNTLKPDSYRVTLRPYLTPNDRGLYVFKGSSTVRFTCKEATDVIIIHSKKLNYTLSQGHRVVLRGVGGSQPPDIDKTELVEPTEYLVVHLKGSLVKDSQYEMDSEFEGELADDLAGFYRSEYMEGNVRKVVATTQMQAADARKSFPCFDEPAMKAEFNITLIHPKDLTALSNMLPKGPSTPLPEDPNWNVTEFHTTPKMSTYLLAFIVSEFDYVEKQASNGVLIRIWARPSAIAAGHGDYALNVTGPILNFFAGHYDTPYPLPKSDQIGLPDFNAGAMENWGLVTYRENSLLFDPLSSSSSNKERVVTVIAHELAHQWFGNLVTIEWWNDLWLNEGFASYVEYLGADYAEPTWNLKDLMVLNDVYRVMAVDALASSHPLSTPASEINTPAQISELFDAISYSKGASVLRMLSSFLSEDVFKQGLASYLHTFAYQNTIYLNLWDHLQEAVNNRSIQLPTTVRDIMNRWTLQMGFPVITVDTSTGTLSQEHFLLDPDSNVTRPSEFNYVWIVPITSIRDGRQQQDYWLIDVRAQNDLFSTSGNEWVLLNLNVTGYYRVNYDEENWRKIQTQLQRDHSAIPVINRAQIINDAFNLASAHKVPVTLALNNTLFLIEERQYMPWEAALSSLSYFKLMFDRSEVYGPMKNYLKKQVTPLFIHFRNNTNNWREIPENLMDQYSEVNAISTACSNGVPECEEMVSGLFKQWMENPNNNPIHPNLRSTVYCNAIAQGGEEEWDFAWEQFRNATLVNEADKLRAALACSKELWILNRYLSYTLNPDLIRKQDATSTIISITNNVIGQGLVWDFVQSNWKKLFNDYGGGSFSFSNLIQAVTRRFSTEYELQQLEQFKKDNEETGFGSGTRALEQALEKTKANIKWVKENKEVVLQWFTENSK
Sequence of CD13/aminopeptidase N (P15144 whole entry): as above

O=c1[nH]cc(F)c(=O)[nH]1 [CARAC]
CD13/APN obtained by affinity chromatography on immobilized peptide (CD13/APN): yielded no CD13/APN
elution of CD13/APN from the CNGRC column by soluble peptide (CD13/APN; Molt-4/CD13, MDA-MB-435/CD13 or HL-60 cell extracts): did not elute any activity

CCCCC[C@H](CC(=O)NO)C(=O)N[C@H](C(=O)N1CCC[C@H]1CO)C(C)C [actinonin]
block of cell-surface CD13/aminopeptidase N enzymatic activity (CD13/aminopeptidase N): potently blocked
effect on bFGF-induced angiogenesis in CAM (CD13): suppress bFGF-induced angiogenesis

COc1cccc2c1C(=O)c1c(O)c3c(c(O)c1C2=O)C[C@@](O)(C(=O)CO)C[C@@H]3O[C@H]1C[C@H](N)[C@H](O)[C@H](C)O1 [doxorubicin, reference compound]
gross examination of tumors (skin ulceration and tumor necrosis) [1]: no such signs were observed
cell killing when agents not removed [2]: cells were killed
effect on tumor growth ([3]; relative to vehicle alone): essentially no effect on tumor growth

ACDCRGDCFCG
reduction of the amount of phage in the tumor by coinjection of free peptide [4]: about tenfold

CDCRGDCFC [RGD-4C]
binding to αv-integrins (human αv-integrins): binds to human αv-integrins
inhibition of tumor homing of CNGRCVSGCAGRC (NGR) phage by co-injected soluble peptide [4]: partially inhibited
inhibition of tumor homing of RGD-4C phage by co-injected soluble peptide [4]: readily inhibited
potency in inhibiting NGR phage tumor homing, less potent than the CNGRC peptide ([4]; mouse, in vivo): 5-10 times

CGSLVRC
inhibition of CGSLVRC phage tumor homing by soluble peptide [4]: inhibition of tumor homing

CLSGSLSC
share of the clones sequenced (B16B15b mouse melanoma): 52%

GACVFSIAHECGA (not fully specified (bridges); also: cyclic, ring type not given here) [unrelated cyclic control peptide, reference compound]
inhibition of tumor homing of CNGRCVSGCAGRC (NGR) phage by co-injected soluble peptide [4]: had no effect
inhibition of tumor homing of RGD-4C phage by co-injected soluble peptide [4]: had no effect

GRGESP [reference compound]
reduction of the amount of phage in the tumor by coinjection of free peptide [4]: essentially had no effect

WGTGLC
share of the clones sequenced (B16B15b mouse melanoma): 25%

doxorubicin/RGD-4C: doxorubicin conjugated to peptide CDCRGDCFC (SEQ ID NO:1) (cysteine pairing not given here; also: doxorubicin conjugate)
survival after acute dose [5]: survived for longer than one week
gross examination of tumors (skin ulceration and tumor necrosis) [1]: marked skin ulceration and tumor necrosis
viability of tumor cells, less than cells from tumors of mice treated with free doxorubicin (breast tumor): about 3 fold
cell death after 30 min exposure ([2]; 0.1 to 10 μg/well doxorubicin-equivalent, agents removed after 30 min, survival at 24 hours): cell death was present
cell killing when agents not removed [2]: cells were killed
pulmonary metastasis [3, 6]: a lower incidence of pulmonary metastasis and fewer metastatic lesions
spread to regional lymph nodes [3, 6]: less spread to regional lymph nodes
survival [3, 6]: survived beyond the time when the doxorubicin control and conjugate control mice had died
tumor size versus doxorubicin control [3, 6]: significantly smaller tumors
time alive after control mice had died ([3]; dose escalation, 30 μg/mouse every three weeks for three cycles): more than 6 months
histopathological analysis of tumor vasculature ([3]; mouse, in vivo): pronounced destruction of the vasculature
